pEC50: −log10 of the molar value. Like-named read-outs stand apart in the source and are kept apart here.
What was measured:
Format in all cases: cell-based
[1] = test system: HA-tagged HBeAg (HBV) in DESHAe82 cells; test: AlphaLisa eAg assay: HA-HBeAg level in DESHAe82 cell culture (anti-HBV / anti-cccDNA activity); details: Hepatitis B virus, 216 h, read-out: AlphaLisa_eAg EC50 (μM)
Protocol: Evaluation of anti-HBV activity of the compounds in in vitro cell culture studies was conducted using a modification of the assay system described in Cai et al., 2012, Antimicrobial Agents Chemotherapy 56(8):4277-88 and PCT/EP/2015/06838. In the DESHAe82 cell culture system, the HA epitope-tagged secreted HBV “e antigen” (HBeAg) and HBV precore RNA are produced only from the cccDNA circular template that is formed after HBV replication in absence of Tetracycline (Tet). The DESHAe82 cell line produces high levels of cccDNA synthesis and HA-HBeAg, and high specific readout signals with low noise. Two assay systems, a chemiluminescence ELISA (CLIA) and a proximity […] assay (AlphaLISA) were developed and used for high-sensitivity detection of HA-tagged HBeAg.
To test the compound, DESHAe82 were plated in 96 well tissue-culture treated microtiter plates in DMEM/F12 medium supplemented with 10% fetal bovine serum+1% penicillin-streptomycin with Tet, and incubated in a humidified incubator at 37° C. and 5% CO2 overnight. Next day, the cells were switched to fresh medium without Tet and treated with a test compound, over a range of concentrations (compound was solubilized in 100% DMSO before dilution in cell culture media, and the final DMSO concentration in the assay was 0.5%), and incubated for a duration of 9 days in a humidified incubator at 37° C. and 5% CO2. Untreated negative control samples (0.5% DMSO only) were included on each plate in multiple wells. On day 9, media was harvested and removed to a fresh plate, and level of HA-HBeAg was determined by CLIA or AlphaLISA. Anti-cccDNA activity of each test compound concentration was calculated as a percentage of HA-HBeAg signal detected in negative control samples versus compound-treated samples, and EC50 value for each compound was defined as the concentration that reduced the HA-HBeAg signal by 50%.

[2] = test system: HBV rcDNA in HepDE19 cells; test: HepDE19 assay with bDNA quantitation of HBV rcDNA; details: Hepatitis B virus; for pEC50: 168 h, HepDE19 cells, 7 day incubation, top concentration 25 μM, read-out: bDNA_RC DNA EC50; for EC50: HepDE19, 168 h, read-out: bDNA_RC DNA EC50 (μM)
Description: (§1) The invention further provides a method of screening compounds for activity against HBV, as exemplified herein. In certain embodiments, the method comprises a HepDE19 assay with bDNA quantitation of HBV rcDNA. HepDE19 cell culture system is a HepG2 (human hepatocarcinoma) derived cell line that supports HBV DNA replication and cccDNA formation in a tetracycline (Tet)-regulated manner and produces HBV rcDNA and a detectable reporter molecule dependent on the production and maintenance of cccDNA (Tavis & Lomonosova, 2015, Antiviral Res. 118:132-138). In certain non-limiting embodiments, HepDE19 (50,000 cells/well) are plated in 96 well collagen-coated tissue-culture treated microtiter plates in DMEM/F12 medium supplemented with 10% fetal bovine serum, 1% penicillin-streptomycin and 1 μg/ml tetracycline and incubated in a humidified incubator at 37° C. and 5% CO2 overnight. Next day, the cells are switched to fresh medium without tetracycline and incubated for 4 hrs at 37° C. and 5% CO2. The cells are treated with fresh Tet-free medium with compounds at concentrations starting at 25 μM and a serial, ½ log, 8-point, titration series in duplicate. The final DMSO concentration in the assay is 0.5%. The plates are incubated for 7 days in a humidified incubator at 37° C. and 5% CO2. Following a 7 day-incubation, the level of rcDNA present in the inhibitor-treated wells is measured using a Quantigene 2.0 bDNA assay kit (Affymetrix, Santa Clara, Calif.) with HBV specific custom probe set and manufacturer's instructions.
In order to differentiate HBV RNaseH inhibitors from other classes of HBV inhibitors (such as, for example, nucleos(t)ide analogs or capsid inhibitors), the assay method is configured by incorporating the quantitation of both the minus-strand and the plus-strand of HBV rcDNA levels using specifically designed HBV probe sets. This is based on the observation that inhibition of RNaseH enzyme activity results in a block of the synthesis of the plus strand synthesis by the viral polymerase that follows the synthesis of the minus-strand of rcDNA (Guo, et al., 2007, J. Virol. 81:12472-12484). […] In contrast, treatment with HBV inhibitors such as a nucleos(t)ide analogs or capsid inhibitors reduces production of both strands of HBV rcDNA in cells. Concurrently, the effect of compounds on cell viability can be assessed using replicate plates, plated at a density of 5,000 cells/well and incubated for 4 days, to determine the ATP content as a measure of cell viability using the cell-titer glo reagent (CTG; Promega Corporation, Madison, Wis.) as per manufacturer's instructions. The plates are read using a Victor luminescence plate reader (PerkinElmer Model 1420 Multilabel counter), and the relative luminescence units (RLU) data generated from each well was calculated as % inhibition of the untreated control wells and analyzed using XL-Fit module in Microsoft Excel to determine EC50 and EC90 (bDNA) and CC50 (CTG) values using a 4-parameter curve fitting algorithm.
HepDE19 cell culture system is a HepG2 (human hepatocarcinoma) derived cell line that supports HBV DNA replication and cccDNA formation in a tetracycline (Tet)-regulated manner and produces HBV rcDNA and a detectable reporter molecule dependent on the production and maintenance of cccDNA (Guo, et al., 2007, J. Virol. 81:12472-12484). HepDE19 (50,000 cells/well) were plated in 96 well collagen-coated tissue-culture treated microtiter plates in DMEM/F12 medium supplemented with 10% fetal bovine serum, 1% penicillin-streptomycin and 1μg/ml tetracycline and incubated in a humidified incubator at 37° C. and 5% CO2 overnight. Next day, the cells were switched to fresh medium without tetracycline and incubated for 4 hrs at 37° C. and 5%CO2. The cells were treated with fresh Tet-free medium with compounds at concentrations starting at 25 μM and a serial, ½ log, 8-point, titration series in duplicate. The final DMSO concentration in the assay was 0.5%. […]

[3] = test system: plus-strand of HBV rcDNA in HepDE19 cells; test: HepDE19 assay with bDNA quantitation of the plus-strand of HBV rcDNA; details: Hepatitis B virus; for pEC50: 168 h, HepDE19 cells, 7 day incubation, plus-strand probe set, top concentration 25 μM, read-out: bDNA_RC DNA PS EC50
Description: as §1
In order to differentiate HBV RNaseH inhibitors from other classes of HBV inhibitors (such as, for example, nucleos(t)ide analogs or capsid inhibitors), the assay method is configured by incorporating the quantitation of both the minus-strand and the plus-strand of HBV rcDNA levels using specifically designed HBV probe sets. […] Concurrently, the effect of compounds on cell viability can be assessed using replicate plates, plated at a density of 5,000 cells/well and incubated for 4 days, to determine the ATP content as a measure of cell viability using the cell-titer glo reagent (CTG; Promega Corporation, Madison, Wis.) as per manufacturer's instructions. The plates are read using a Victor luminescence plate reader (PerkinElmer Model 1420 Multilabel counter), and the relative luminescence units (RLU) data generated from each well was calculated as % inhibition of the untreated control wells and analyzed using XL-Fit module in Microsoft Excel to determine EC50 and EC90 (bDNA) and CC50 (CTG) values using a 4-parameter curve fitting algorithm. […]

Compound | EC50 [1] | pEC50 [2] | pEC50 [3] | EC50 [2] | EC50 ([3]; HepDE19, 168 h, read-out: bDNA_RC DNA PS EC50 (μM))
CCOC(=O)C1C(=O)N(O)C(=O)c2ccc(OC)nc21 (stereo not shown) [Compound 1, Ethyl 6-hydroxy-2-methoxy-5,7-dioxo-5,6,7,8-tetrahydro-1,6-naphthyridine-8-carboxylate] | 2.4 µM | < 4.60 | – | – | –
CCN(CC)C(=O)C1C(=O)N(O)C(=O)c2ccc(OC)nc21 (stereo not shown) [Compound 2, N,N-diethyl-6-hydroxy-2-methoxy-5,7-dioxo-5,6,7,8-tetrahydro-1,6-naphthyridine-8-carboxamide] | 1.5 µM | < 4.60 | 4.95 | – | –
COc1ccc2c(n1)C(C(=O)Nc1ccc(Cl)cc1)C(=O)N(O)C2=O (stereo not shown) [Compound 3, N-(4-chlorophenyl)-6-hydroxy-2-methoxy-5,7-dioxo-5,6,7,8-tetrahydro-1,6-naphthyridine-8-carboxamide] | 9.6 µM | – | – | 9.4 µM | 16 µM
COc1ccc2c(n1)C(C(=O)Nc1ccc(F)cc1)C(=O)N(O)C2=O (stereo not shown) [Compound 4, N-(4-fluorophenyl)-6-hydroxy-2-methoxy-5,7-dioxo-5,6,7,8-tetrahydro-1,6-naphthyridine-8-carboxamide] | 9.6 µM | – | – | > 25 µM | –
COc1ccc2c(n1)C(C(=O)NCc1ccc(Cl)cc1)C(=O)N(O)C2=O (stereo not shown) [Compound 5, N-(4-chlorobenzyl)-6-hydroxy-2-methoxy-5,7-dioxo-5,6,7,8-tetrahydro-1,6-naphthyridine-8-carboxamide] | > 50 µM | < 4.60 | < 4.60 | – | –
O=C(NCc1ccc(F)cc1)C1C(=O)N(O)C(=O)c2ccc(O)nc21 (stereo not shown) [Compound 6, N-(4-fluorobenzyl)-2,6-dihydroxy-5,7-dioxo-5,6,7,8-tetrahydro-1,6-naphthyridine-8-carboxamide] | 3.6 µM | < 4.60 | 4.82 | – | –
